Results from US12661410B2, “Compounds for targeted degradation of RET” (C4 Therapeutics, Inc., priority 2020, dated 2026).
Where a chain is given by its changes, count along the chain named. Where two headings read alike, the source gives them in different places.

Assays:
RET (658-1114) = molecular target: T1, RET (658-1114) (Homo sapiens, UniProt P07949); test: HiBiT-Degradation, RET wild-type degradation assay (Nano-Glo HiBiT Lytic), 293T.144 cells; format: cell-based; conditions: for Emax / DC50: 6.0 hours
T1 construct: 658-1114; expressed in transfected cells; host or cells: 293T.144 (293T cells, generated in-house)
T1 sequence (P07949 658-1114): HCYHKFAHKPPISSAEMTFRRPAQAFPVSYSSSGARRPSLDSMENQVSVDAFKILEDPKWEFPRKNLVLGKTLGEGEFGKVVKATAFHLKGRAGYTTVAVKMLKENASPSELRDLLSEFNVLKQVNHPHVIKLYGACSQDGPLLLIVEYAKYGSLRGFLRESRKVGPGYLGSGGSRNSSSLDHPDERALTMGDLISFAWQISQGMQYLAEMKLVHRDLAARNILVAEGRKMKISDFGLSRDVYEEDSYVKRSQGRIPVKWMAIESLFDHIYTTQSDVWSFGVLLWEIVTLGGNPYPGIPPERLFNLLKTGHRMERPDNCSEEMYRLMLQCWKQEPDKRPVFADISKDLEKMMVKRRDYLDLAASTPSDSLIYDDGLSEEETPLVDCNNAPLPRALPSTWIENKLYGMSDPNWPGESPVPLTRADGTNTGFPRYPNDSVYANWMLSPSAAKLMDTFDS
From the text: (§1) Dulbecco's modified Eagle medium (DMEM) no-phenol red media and fetal bovine serum (FBS) were purchased from Gibco (Grand Island, NY, USA). Cell lines ectopically expressing wild-type or G810R RET kinase domain fused with a HiBiT tag were generated in-house (293T. 144 and 293T. 165, respectively). Cell culture flasks and 384-well microplates were acquired from VWR (Radnor, PA, USA). The Nano-Glo® HiBiT Lytic Assay System was purchased from Promega (Madison, WI, USA).
(§2) RET wild-type (WT) and G810R degradation were assessed using the Nano-Glo® HiBiT Lytic assay (Promega, Medison, WI, USA). To determine the effect of degraders on protein levels, cells were plated in 384-well plates and treated with compounds of interest in duplicates for 6 hours using an 11-point half-log dilution series, with the highest dose set at 10 μM. Cell lysis and addition of the Nano-Glo® HiBiT Lytic Assay reagents was then performed. Luminescence signal was measured using an EnVision™ Multimode plate reader (Perkin Elmer, Santa Clara, CA, USA). The half-maximal degradation concentration (DC50) and % remaining protein (Emax) was then derived from the dose-response curves.

RET(KD: 658-1114 G810R) = molecular target: T2, RET(KD: 658-1114 G810R) (Homo sapiens, UniProt P07949, G810R); test: HiBiT-Degradation, RET G810R degradation assay (Nano-Glo HiBiT Lytic), 293T.165 cells; format: cell-based; conditions: for Emax / DC50: 6.0 hours
T2 construct: 658-1114; expressed in transfected cells; host or cells: 293T.165 (293T cells, generated in-house)
T2 sequence (P07949 658-1114 G810R): T1 sequence (P07949 658-1114) with G153R
From the text: as §1, §2

[1] = % remaining protein, read-out: 293T.144 RET (658-1114) 6.0 hours (Emax)
[2] = half-maximal degradation concentration, read-out: 293T.144 RET (658-1114) 6.0 hours (DC50)
[3] = % remaining protein, read-out: 293T.165 RET(KD: 658-1114 G810R) 6.0 hours (Emax)
[4] = half-maximal degradation concentration, read-out: 293T.165 RET(KD: 658-1114 G810R) 6.0 hours (DC50)

| SMILES | 293T.144 RET (658-1114) 6.0 hours (IP) [nM] (RET (658-1114)) | Emax (RET (658-1114); [1]) | DC50 (RET (658-1114); [2]) | 293T.165 RET(KD: 658-1114 G810R) 6.0 hours (IP) [nM] (RET(KD: 658-1114 G810R)) | Emax (RET(KD: 658-1114 G810R); [3]) | DC50 (RET(KD: 658-1114 G810R); [4]) | HiBiT-Degradation 293T.144 RET (658-1114) 6.0 hours (IP) [nM] (RET (658-1114); RET wild-type) | DC50 (RET (658-1114); RET wild-type, read-out: HiBiT-Degradation 293T.144 RET (658-1114) 6.0 hours (DC50)) | Emax (RET (658-1114); RET wild-type, read-out: HiBiT-Degradation 293T.144 RET (658-1114) 6.0 hours (Emax)) | HiBiT-Degradation 293T.165 RET(KD: 658-1114 G810R) 6.0 hours (IP) [nM] (RET(KD: 658-1114 G810R); RET G810R) | DC50 (RET(KD: 658-1114 G810R); RET G810R, read-out: HiBiT-Degradation 293T.165 RET(KD: 658-1114 G810R) 6.0 hours (DC50)) | Emax (RET(KD: 658-1114 G810R); RET G810R, read-out: HiBiT-Degradation 293T.165 RET(KD: 658-1114 G810R) 6.0 hours (Emax)) |
| --- | --- | --- | --- | --- | --- | --- | --- | --- | --- | --- | --- | --- |
| CCC1(C(=O)NC2CCC2)CCN(c2ccc(-c3nc(-c4cnn([C@H]5CC[C@H](N6CCC(c7ccc(N[C@@H]8CCC(=O)NC8=O)cc7)CC6)CC5)c4)cn4ncc(C#N)c34)cn2)CC1 (single isomer, unassigned) [Compound 128] | ++++ (<50 nM = ++++) | < 30% | < 50 nM | ++++ (<50 nM = ++++) | < 30% | < 50 nM | – | – | – | – | – | – |
| N#Cc1cnn2cc(-c3cnn(C4CCN(C(=O)CN5CCC(c6ccc(NC7CCC(=O)NC7=O)cc6F)CC5)CC4)c3)cc(-c3ccc(N4CC5CC(C4)N5Cc4ccccn4)nc3)c12 (stereo not shown) [Compound 73, 6-[1-[1-[2-[4-[4-[(2,6-dioxo-3-piperidyl)amino]-2-fluoro-phenyl]-1-piperidyl]acetyl]-4-piperidyl]pyrazol-4-yl]-4-[6-[6-(2-pyridylmethyl)-3,6-diazabicyclo[3.1.1]heptan-3-yl]-3-pyridyl]pyrazolo[1,5-a]pyridine-3-carbonitrile] | – | – | – | – | < 30% | < 50 nM | ++++ (< 50 nM = ++++) | < 50 nM | < 30% | ++++ (< 50 nM = ++++) | < 50 nM | < 30% |
| CCC1(C(=O)NC2CCCC2)CCN(c2ccc(-c3nc(-c4cnn([C@H]5CC[C@H](N6CCC(c7ccc(N[C@@H]8CCC(=O)NC8=O)cc7F)CC6)CC5)c4)cn4ncc(C#N)c34)cn2)CC1 [Compound 142, 1-[5-[3-cyano-6-[1-[4-[4-[4-[[(3R)-2,6-dioxo-3-piperidyl]amino]-2-fluoro-phenyl]-1-piperidyl]cyclohexyl]pyrazol-4-yl]pyrazolo[1,5-a]pyrazin-4-yl]-2-pyridyl]-N-cyclopentyl-4-ethyl-piperidine-4-carboxamide] | ++++ (<50 nM = ++++) | < 30% | < 50 nM | ++++ (<50 nM = ++++) | < 30% | < 50 nM | – | – | – | – | – | – |
| N#Cc1cnn2cc(-c3cnn(C4CCC(N5CCN(c6ccc(NC7CCC(=O)NC7=O)cc6F)CC5)CC4)c3)nc(-c3ccc(N4C[C@H]5COC[C@@H](C4)N5CC4CCC(F)(F)CC4)nc3)c12 (single isomer, unassigned) [Compound 150] | ++++ (<50 nM = ++++) | < 30% | < 50 nM | ++++ (<50 nM = ++++) | < 30% | – | – | – | – | – | – | – |
